In patent publication US12048686B2, “Compositions and methods for activating NRF2-dependent gene expression” (The University of Chicago, priority 2018, dated 2024):

How the values were obtained:
Assay type in all cases: cell-based
[1] = tested on: Primary murine alveolar macrophages; assay: PM-induced mRNA expression in primary murine alveolar macrophages; conditions: pretreated 4 hours, 4 hours later
Method: FIG. 19A-C. Primary murine alveolar macrophages were treated with PM or vehicle control (media) in the absence or presence of CBR-470-1 (pretreated 4 hours prior to PM) and measured IL-6, TNFa and NQO1 mRNA 4 hours later.

[2] = tested on: MHS cells (a murine alveolar macrophage cell line); assay: PM- or LPS-induced mRNA expression in MHS cells
Method: FIG. 14A-B. MHS cells (a murine alveolar macrophage cell line) were treated with particulate matter (PM) or LPS and vehicle control (media) in the absence or presence of CBR-470-1 (pretreated 4 hours prior to PM/LPS) and measured IL-6 mRNA 4 hours later.
FIG. 15A-B. MHS cells were treated with particulate matter (PM) or LPS and vehicle control (media) in the absence or presence of CBR-470-1 (also noted as Drug in the figure) (pretreated 4 hours prior to PM/LPS) and measured TNFa and NQO1 mRNA 4 hours later. […] NQO1 (NAD(P)H:quinone oxidoreductase), also known as DT-diaphorase, is a major regulator of oxidative stress and activator of mitomycins. ROS produced during metabolic processes are normally converted into harmless products by antioxidant enzymes such as NQO1.
FIG. 16A-B. MHS cells were treated with particulate matter (PM) or LPS and vehicle control (media) in the absence or presence of different doses of CBR-470 (pretreated 4 hours prior to PM/LPS) and measured IL-6 mRNA 4 hours later.
FIG. 17A-B. MHS cells were treated with particulate matter (PM) or LPS and vehicle control (media) in the absence or presence of different doses of CBR-470-1 (pretreated 4 hours prior to PM/LPS) and measured TNFa and NQO1 mRNA 4 hours later.
FIG. 18A-C. MHS cells were treated with particulate matter (PM) or LPS and vehicle control (media) in the absence or presence of CBR-470-1 (5 uM, pretreated 4 hours prior to PM/LPS) and measured IL-6, TNFa and NQO1 mRNA 4 hours and 24 hours later.

[3] = tested on: IMR32; assay: Seahorse XF96 global bioenergetics in IMR32 cells; conditions: IMR32, 1 hr
Method: (§1) Cells were plated for 24 hrs., then incubated with the indicated doses of CBR-470 for 1 hr. Under CBR-470-1 treated conditions, cellular ECAR and OCR was recorded for CBR-470 alone, CBR-470+10 mM Glucose, and CBR-470+3 μM Oligomycin.
as §1, with “Genetic manipulation of central glycolytic targets GLO1 and PGK1 regulate viability in the very sensitive colorectal cancer cell line HCT116. […] (FIG. 42). […] Cells” for “Cells”

[4] = tested on: NRF2-dependent luciferase reporter (pTI-ARE-LUC); assay: ARE-LUC reporter assay in HEK293T cells with PGK1 knockdown or overexpression
Method: FIG. 1A-D. CBR-470-1-dependent inhibition of glycolysis activates NRF2 signaling. […] PGK1, Actin and Tubulin protein levels are shown from representative experiments (n=3). (c) Heat map depiction of relative metabolite levels in IMR32 cells treated for 30 min with CBR-470-1 (left) or viral shRNA knockdown of PGK1 (right) relative to DMSO and scramble shRNA controls, respectively. BPG refers to both 2,3-BPG and 1,3-BPG, whereas 1,3-BPG specifically refers to the 1,3-isomer.
High throughput screening and ARE-LUC reporter assay. For high throughput screening, IMR32 cells were plated at 5×10^3 cells per well in white 384-well plates in 40 μL of growth medium. […] After 24 hour incubation, ARE-LUC luminance values were recorded on an Envision instrument after the addition of 30 μL of Bright Glo reagent solution (Promega, diluted 1:3 in water). […] For overexpression and knockdown experiments in HEK293T with ARE-LUC reporter readouts, 5×10^5 cells were plated on poly-d-lysine coated plates and transfected with 1.5 μg of overexpression or shRNA plasmid and 500 ng of pTI-ARE-LUC using Optimem medium and Fugene in the same mode as above. […] ARE-LUC luminance values were recorded on an Envision plate reader 24 hours later by the addition of 75 μL of Bright Glo reagent solution (1:3 in water).

[5] = tested on: alveolar macrophages; assay: PM exposure of alveolar macrophages (Example 6)
Source text: FIG. 30A-D. CBR-470 activates NRF2 and inhibits PM-induced inflammatory cytokine production from alveolar macrophages. (a-c) Indicated transcript levels in response to PM exposure for 4 hr in the presence and absence of CBR-470, PGK1 inhibitor (10 micromolar). (d) Western blot analysis of NRF2 protein levels under the conditions in a-c.
FIG. 31. Time dependent effects of CBR-470-1 on alveolar macrophage cytokine mRNA levels at specific timepoints
FIG. 32. […] This represents a distinct mechanism of action compared to many other pharmacologic NRF2 activators, which achieve efficacy through induction of ROS (reactive oxygen species).
Indicated transcript levels in response to PM exposure for 4 hr in the presence and absence of CBR-470-1, PGK1 inhibitor (10 micromolar). Western blot analysis of NRF2 protein levels. PM-exposure also results in activation of the NRF2 pathway, which is confirmed by increased transcript levels of its prototypical target Nqo1 (FIG. 30c) and NRF2 protein accumulation (FIG. 30d). […] FIG. 31 illustrates time dependent effects of CBR-470-1 on alveolar macrophage cytokine mRNA levels at specific timepoints. […] This represents a distinct mechanism of action compared to many other pharmacologic NRF2 activators, which achieve efficacy through induction of ROS (reactive oxygen species).

[6] = pretreated 4 hours, measured 4 hours later
[7] = control and PM-treated cells, PM 4 hr

CC(C)CN[C@H]1CS(=O)(=O)C[C@@H]1S(=O)(=O)c1ccc(Cl)cc1 [CBR-470-1]
IL-6 mRNA [1]: attenuated PM-induced l6 and TNFa mRNA expression | NQO1 mRNA [1]: induced NQO1 (Nrf2 target gene) | TNFa mRNA [1]: attenuated PM-induced l6 and TNFa mRNA expression | NQO1 mRNA ([2]; different doses, 4 hours): induced NQO1 (Nrf2 target gene) under both PM and LPS in a dose dependent manner | TNFa mRNA ([2]; different doses, 4 hours): attenuated PM- and LPS-induced TNFa mRNA expression | IL-6 mRNA [2, 6]: abolished PM- and LPS-induced il6 mRNA expression | NQO1 mRNA [2, 6]: induced NQO1 (Nrf2 target gene) under both PM and LPS | TNFa mRNA [2, 6]: abolished PM- and LPS-induced TNFa mRNA expression | glycolytic flux (Extracellular Acidification Rate, ECAR) [3]: reduced glycolytic flux and oxidative phosphorylation rate | oxidative phosphorylation rate (Oxygen Consumption Rate, OCR) [3]: reduced glycolytic flux and oxidative phosphorylation rate | EC50 of ARE-LUC reporter activation ([4]; knockdown of PGK1): decreased | EC50 of ARE-LUC reporter activation ([4]; overexpression of PGK1): increased | ROS elevation ([5]; alveolar macrophages): does not cause significant ROS elevation in alveolar macrophages | overall cellular bioenergetics ([5]; alveolar macrophages): only a slight decrease in overall cellular bioenergetics | Il6 mRNA levels [5, 7]: dose-dependent decreases in 116 and Tnfα mRNA levels in both control and PM-treated cells | Tnfα mRNA levels [5, 7]: dose-dependent decreases in 116 and Tnfα mRNA levels in both control and PM-treated cells | NRF2-signaling (Nqo1 transcript, NRF2 protein) ([5]; control and PM-treated macrophages): activates NRF2-signaling in both control and PM-treated macrophages
